According to patent publication US20230059009A1, “INHIBITORS OF LIN28 AND METHODS OF USE THEREOF” (The Regents of the University of California, priority 2019, published 2023):
Entries after “also recorded” stand apart in the source; their conditions may differ.

What was measured:
[1] = Caco2 permeability; format: in vitro ADME; conditions: human, Caco-2, Conc. 30 uM; for recovery at 30 uM: read-out: Caco2 Mean A-B % Recovery
[2] = target: CYP 2D6 (Homo sapiens, UniProt P10635); assay: CYP inhibition 2D6; format: in vitro ADME; parameters: unit not given here; conditions: Conc. 30 uM
[3] = tested on: DU145; assay: Cell viability, MTT assay, DU145; format: cell-based; conditions: Homo sapiens, DU-145, DU145 (Prostate)
Description: (§1) To measure cell viability, cell titer glow (CTG, Promega CellTiter-Glo 2.0 Assay) and MTT assays (SigmaAldrich, Cell Proliferation Kit I) were performed. Briefly, cells were serum starved overnight prior to seeding in 96-well plates. Following 24 h incubation, cells were treated with increasing concentrations of JGJ compounds for 96 hr. At assay read-out, CellTiter-Glo reagent was added and luminescence was measured after 10-minutes incubation at room temperature. For the MTT assay, MTT labeling reagent was added and incubated for 4 h. Subsequently, medium was removed and 50 μL DMSO was added to solubilize the crystals, and absorbance was measured at 570 nm. Cell viability was calculated as (Sample-Background)/(Control-Background). Current standard of care drugs, Enzalutamide, Palbociclib and Cetuximab were used as comparative controls.

[4] = target: T1, CYP 2B6 (Homo sapiens, UniProt P20813); assay: CYP inhibition 2B6; format: in vitro ADME; parameters: unit not given here; conditions: Conc. 30 uM
T1 sequence (P20813 1-491): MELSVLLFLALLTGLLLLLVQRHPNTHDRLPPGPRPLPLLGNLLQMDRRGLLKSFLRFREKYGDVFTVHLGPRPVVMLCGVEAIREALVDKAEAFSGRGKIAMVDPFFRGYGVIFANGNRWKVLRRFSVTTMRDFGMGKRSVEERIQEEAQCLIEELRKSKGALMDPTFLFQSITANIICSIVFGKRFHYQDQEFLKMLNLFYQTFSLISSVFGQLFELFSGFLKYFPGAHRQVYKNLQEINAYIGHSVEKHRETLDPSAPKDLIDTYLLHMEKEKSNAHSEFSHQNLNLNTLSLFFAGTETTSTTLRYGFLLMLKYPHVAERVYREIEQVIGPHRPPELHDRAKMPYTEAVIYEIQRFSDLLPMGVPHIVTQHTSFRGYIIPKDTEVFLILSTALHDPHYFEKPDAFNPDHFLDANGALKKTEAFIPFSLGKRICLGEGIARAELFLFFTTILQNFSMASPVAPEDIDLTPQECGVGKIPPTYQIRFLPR

[5] = Microsomal stability, Human; format: in vitro ADME; conditions: Conc. 30 uM; for CLint scaled at 30 uM / half-life at 30 uM: microsomes; for half-life at 30 uM: read-out: Microsomal stability T½
[6] = tested on: H1568; assay: Cell viability, MTT assay, H1568; format: cell-based
Description: as §1

[7] = tested on: LSCs; assay: Colony forming capacity (CFC) of iMLL-AF9 LT-HSC derived LSCs; format: cell-based, mouse; conditions: 200 nM Ara-C or 30 μM 1632, 48 h
Text: In addition, Lin28 was independently found to be a key driver in MLL-associated leukemias (56). In order to further characterize the role of Lin28/let-7 in regulating AML, LSC proliferation and therapy resistance in vivo, we used a doxycycline (DOX) inducible, transgenic mouse model for MLL-AF9-driven AML (iMLL-AF9 (57)). In this model, long-term HSC (LT-HSC, Lin^−CD34^−[…] c-Kit^+ CD150^+ CD48^−) derived AML blasts closely mirror an LSC-like phenotype resulting in a particularly aggressive, Cytarabine (Ara-C) resistant AML (57). […] Moreover, relapsed AML cells arising from rLSCs after treatment with Ara-C (100 mg/kg) at d+60 were even further enriched in Lin28b expression (FIG. 2B). Additionally, levels of both, let-7a and let-7b miRNAs, negatively correlated with increased Lin28b in rLSCs (FIG. 2C) (10, 39). Our findings are consistent with papers reporting that increased Lin28 correlates with disease recurrence post chemotherapy in colon and liver cancer stem cells (22, 58).
As Lin28 is overexpressed human AML, LSCs and rLSCs, we sought to determine if genetic Lin28b or pharmacologic Lin28/let-7 inhibition via LN1632 can abrogate proliferation of LSCs and thus overcome their therapy resistance. […]

[8] = tested on: AML pt #13 cells; assay: Engraftment of ex vivo treated primary AML pt #13 cells in NSGS; parameters: species or system NSGS mice; conditions: ex vivo treatment 120 μM for 72 h, 12 weeks
[9] = target: T2, PRPF31 (Homo sapiens, UniProt Q8WWY3); assay: MDA-MB-231 TNBC cell numbers with PRPF31 overexpression or silencing; format: cell-based; parameters: mGFP (C); host or cells: MDA-MB-231 TNBC cells; conditions: 100 μM LN1632
T2 sequence (Q8WWY3 1-499): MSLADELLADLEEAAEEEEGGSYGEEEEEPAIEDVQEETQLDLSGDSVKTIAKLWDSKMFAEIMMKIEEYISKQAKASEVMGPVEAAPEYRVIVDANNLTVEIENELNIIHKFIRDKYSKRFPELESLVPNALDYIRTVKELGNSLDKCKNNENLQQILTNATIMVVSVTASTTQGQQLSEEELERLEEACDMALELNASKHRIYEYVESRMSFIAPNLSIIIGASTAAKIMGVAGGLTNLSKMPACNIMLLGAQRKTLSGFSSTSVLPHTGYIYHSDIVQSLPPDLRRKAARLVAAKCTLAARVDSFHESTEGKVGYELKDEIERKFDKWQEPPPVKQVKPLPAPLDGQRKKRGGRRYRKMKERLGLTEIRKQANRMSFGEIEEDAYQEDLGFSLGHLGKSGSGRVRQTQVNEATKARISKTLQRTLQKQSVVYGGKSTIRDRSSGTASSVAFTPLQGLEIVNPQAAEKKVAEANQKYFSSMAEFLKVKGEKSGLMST
Text: MDA-MB-231 TNBC cells were used to evaluate whether LN1632 targets PRPF31.

Chain of CYP 2D6 (P10635 whole entry): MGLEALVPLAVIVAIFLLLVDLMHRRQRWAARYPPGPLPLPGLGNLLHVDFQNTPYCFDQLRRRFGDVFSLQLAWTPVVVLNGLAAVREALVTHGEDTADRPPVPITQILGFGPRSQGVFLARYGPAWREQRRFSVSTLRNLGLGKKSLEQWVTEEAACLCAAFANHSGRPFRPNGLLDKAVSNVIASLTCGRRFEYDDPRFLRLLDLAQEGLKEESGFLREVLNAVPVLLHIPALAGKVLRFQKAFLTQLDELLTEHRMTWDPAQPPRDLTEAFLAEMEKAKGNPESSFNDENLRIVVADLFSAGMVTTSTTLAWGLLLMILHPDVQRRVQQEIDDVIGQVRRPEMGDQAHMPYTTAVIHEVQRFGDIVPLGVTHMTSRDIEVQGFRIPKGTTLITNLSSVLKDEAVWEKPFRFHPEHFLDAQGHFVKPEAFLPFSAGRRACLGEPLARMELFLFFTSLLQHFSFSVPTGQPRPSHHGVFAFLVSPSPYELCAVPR

Compound | Papp A→B at 30 uM [1] [×10⁻⁶ cm/s] | Papp B→A at 30 uM [1] [×10⁻⁶ cm/s] | efflux ratio at 30 uM [1] | recovery at 30 uM [1] [%] | CYP inhibition 2D6 [2] | IC50 [3] [µM] | CYP inhibition 2B6 [4] | Microsomal stability % Remaining at T30 [5] | CLint scaled at 30 uM [5] [mL/min/kg] | half-life at 30 uM [5] [min] | IC50 ([6]; NCI-H1568, H1568 (Lung)) [µM] | Colony forming capacity cell numbers (CFCs) of LSCs [7] | IC50 ([6]; H1568 (Lung)) [µM] | AML repopulation capability in vivo [8] | Anti-proliferative / pro-apoptotic effect under PRPF31 overexpression or shRNA silencing [9]
Cc1cnc2ccc(-c3cccc(F)c3)nn12 [JGJ015, 6-(3-Fluorophenyl)-3-methylimidazo[1,2-b]pyridazine] | 24.1 | 21.1 | 0.874 | 67.3 | 19.38 | 30 | 67.27 | T30 = 6.9% | 161 | 7.76 | – | – | – | – | –
CC(=O)Nc1cccc(-c2ccc3ncc(C)n3n2)c1 [JGJ007, N-(3-(3-Methylimidazo[1,2-b]pyridazin-6-yl)phenyl)acetamide] | 36.2 | 30 | 0.829 | 87 | 54.08 | 5 | 45.39 | T30 = 72.8% | 19 | 65.6 | 47 | – | – | – | –
CC(=O)N(C)c1cccc(-c2ccc3nnc(C)n3n2)c1 [LN1632] | – | – | – | – | – | – | – | – | – | – | – | significantly abrogated CFCs of LSCs | 128 | inhibited AML repopulation capability in vivo | rescued anti-proliferative effects of LN1632; also recorded: abrogated pro-apoptotic effects of LN1632
